Reference: US9890117B2, “Benzamide compounds and related methods of use” (Northwestern University, priority 2012, dated 2018)
Counter-ions that a name gives are not always drawn.

Biological target: T1, SIRT2 (Homo sapiens, UniProt Q8IXJ6)
T1 construct: recombinant active enzymes SIRT1, SIRT2, and the catalytically active fragment of SIRT3
T1 sequence (Q8IXJ6 1-389): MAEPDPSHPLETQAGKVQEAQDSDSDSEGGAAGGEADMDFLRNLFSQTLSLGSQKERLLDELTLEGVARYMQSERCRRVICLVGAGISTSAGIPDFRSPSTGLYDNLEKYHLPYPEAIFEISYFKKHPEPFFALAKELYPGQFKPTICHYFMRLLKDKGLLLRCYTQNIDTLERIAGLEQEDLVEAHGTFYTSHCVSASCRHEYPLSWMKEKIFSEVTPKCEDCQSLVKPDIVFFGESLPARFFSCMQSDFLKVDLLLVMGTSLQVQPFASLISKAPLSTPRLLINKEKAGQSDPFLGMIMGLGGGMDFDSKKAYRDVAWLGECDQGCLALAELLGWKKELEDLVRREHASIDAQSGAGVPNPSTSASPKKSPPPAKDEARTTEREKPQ
Assay: Fluor-de-Lys biochemical sirtuin deacetylation assay, SIRT2
Settings: 10 μM

[1] = sulfone, sulfoxide, thioether derivatives of C2-8 scaffold

| SMILES | inhibition at 10 µM | also measured |
| --- | --- | --- |
| CSc1ccc(CSc2cccc(C(=O)Nc3ccc(C#N)cc3)c2)cc1 [Compound 183, N-(4-cyanophenyl)-3-((4-(methylthio)benzyl)thio)benzamide] | – | inhibition at 10 µM [1]: 83% |
| N#Cc1ccc(NC(=O)c2cccc([S+]([O-])Cc3ccc(Cl)cc3)c2)cc1 (stereo not drawn) [Compound 186, N-(4-cyanophenyl)-3-((4-chlorobenzyl)sulfinyl)benzamide] | – | inhibition at 10 µM [1]: 47% |
| C[S+]([O-])c1ccc(NC(=O)c2cccc([S+]([O-])Cc3ccc(Cl)cc3)c2)cc1 (stereo not drawn) [Compound 187, 3-((4-chlorobenzyl)sulfinyl)-N-(4-(methylsulfinyl)phenyl)benzamide] | – | inhibition at 10 µM [1]: 24% |
| C[S+]([O-])c1ccc(NC(=O)c2cccc(S(=O)(=O)Cc3ccc(Cl)cc3)c2)cc1 (stereo not drawn) [Compound 188, 3-((4-chlorobenzyl)sulfonyl)-N-(4-(methylsulfinyl)phenyl)benzamide] | – | % of SIRT2 Inhibition at 10 μM [1]: 18% |
| COc1ccc(C[S+]([O-])c2cccc(C(=O)Nc3ccc(C#N)cc3)c2)cc1 (stereo not drawn) [Compound 189, N-(4-cyanophenyl)-3-((4-methoxybenzyl)sulfinyl)benzamide] | – | inhibition at 10 µM [1]: 21% |
| CN(c1ccc(Cl)cc1)S(=O)(=O)c1cccc(C(=O)Nc2ccc(CN)cc2)c1 [Compound 203Aa, N-(4-(aminomethyl)phenyl)-3-(N-(4-chlorophenyl)-N-methylsulfamoyl)benzamide] | 15% | – |
| CN(c1ccc([S+](C)[O-])cc1)S(=O)(=O)c1cccc(C(=O)Nc2ccc(Cl)cc2F)c1 (stereo not drawn) [Compound 203Ad, N-(4-chloro-2-fluorophenyl)-3-(N-methyl-N-(4-(methylsulfinyl)phenyl)sulfamoyl)-benzamide] | 0% | – |
| CN(C(=O)c1ccnc(S(=O)(=O)N(C)c2ccc(Cl)cc2)c1)c1ccc(S(C)(=O)=O)cc1 [Compound 203Ao, 2-(N-(4-chlorophenyl)-N-methylsulfamoyl)-N-methyl-N-(4-(methylsulfonyl)phenyl)-isonicotinamide] | 0% | – |
| C[C@@H](N)c1ccc(N(C)S(=O)(=O)c2cccc(C(=O)Nc3ccc(C#N)cc3)c2)cc1 [Compound 203At, (R)-3-(N-(4-(1-aminoethyl)phenyl)-N-methylsulfamoyl)-N-(4-cyanophenyl)-benzamide hydrochloride] | 38% | – |
| C[C@H](N)c1ccc(N(C)S(=O)(=O)c2cccc(C(=O)Nc3ccc(C#N)cc3)c2)cc1 [Compound 203Au, (S)-3-(N-(4-(1-aminoethyl)phenyl)-N-methylsulfamoyl)-N-(4-cyanophenyl) benzamide hydrochloride] | 39% | – |
| CN(c1ccc(O)cc1)S(=O)(=O)c1cccc(C(=O)Nc2ccc(C#N)cc2)c1 [Compound 203Ax, N-(4-cyanophenyl)-3-(N-(4-hydroxyphenyl)-N-methylsulfamoyl)benzamide] | 51% | – |
| Cc1cc(Br)ccc1NC(=O)c1cccc(S(=O)(=O)N(C)c2ccc(Br)cc2)c1 [Compound 203e, N-(4-bromo-2-methylphenyl)-3-(N-(4-bromophenyl)-N-methylsulfamoyl)benzamide] | 0% | – |
| Nc1cccc(NC(=O)c2cccc(S(=O)(=O)N3CCCCCC3)c2)c1 [Compound 203i, N-(3-aminophenyl)-3-(azepan-1-ylsulfonyl)benzamide] | 43% | – |
| CN(C)c1cccc(NC(=O)c2cccc(S(=O)(=O)N3CCCCCC3)c2)c1 [Compound 203j, 3-(azepan-1-ylsulfonyl)-N-(3-(dimethylamino)phenyl)benzamide] | 61% | – |
| CN(c1ccc(Br)cc1)S(=O)(=O)c1cccc(C(=O)Nc2ccc(Br)cc2F)c1 [Compound 203r, N-(4-bromo-2-fluorophenyl)-3-(N-(4-bromophenyl)-N-methylsulfamoyl)benzamide] | 30% | – |
| CN(C(=O)c1cccc(S(=O)(=O)N(C)c2ccc(Br)cc2)c1)c1ccc(F)cc1F [Compound 203t, 3-(N-(4-bromophenyl)-N-methylsulfamoyl)-N-(2,4-difluorophenyl)-N-methyl-benzamide] | 17% | – |
| CS(=O)(=O)c1ccc(CS(=O)(=O)c2cccc(C(=O)Nc3ccc(C#N)cc3)c2)cc1 [Compound 212a, N-(4-cyanophenyl)-3-((4-(methylsulfonyl)benzyl)sulfonyl)benzamide] | 19% | – |
| C[C@@H](Oc1cccc(C(=O)Nc2ccc(C#N)cc2)c1)c1ccc(C#N)cc1 [Compound 216Ag, (R)—N-(4-cyanophenyl)-3-(1-(4-cyanophenyl)ethoxy)benzamide] | 92% | – |
| CC(Oc1cccc(C(=O)Nc2ccc(C#N)cc2)c1)c1ccc(C2COC2)cc1 (stereo not drawn) [Compound 216Ah, N-(4-cyanophenyl)-3-(1-(4-(oxetan-3-yl)phenyl)ethoxy)benzamide] | 41% | – |
| CC(=O)c1ccc(C(C)(C)Oc2cccc(C(=O)Nc3ccc(C#N)cc3)c2)cc1 [Compound 216Ai, 3-((2-(4-acetylphenyl)propan-2-yl)oxy)-N-(4-cyanophenyl)benzamide] | 80% | – |
| CC(Oc1cccc(C(=O)Nc2ccc(C#N)cc2)c1)c1ccc(C2(C)COC2)cc1 (stereo not drawn) [Compound 216Aj, N-(4-cyanophenyl)-3-(1-(4-(3-methyloxetan-3-yl)phenyl)ethoxy)benzamide] | 43% | – |
| CC(=O)c1ccc([C@@H](C)Oc2cccc(C(=O)Nc3ccc(C#N)cc3)c2)cc1 [Compound 216Ak, (R)-3-(1-(4-acetylphenyl)ethoxy)-N-(4-cyanophenyl)benzamide] | 98% | – |
| CC(=O)c1ccc([C@H](C)Oc2cccc(C(=O)Nc3ccc(C#N)cc3)c2)cc1 [Compound 216Al, (S)-3-(1-(4-acetylphenyl)ethoxy)-N-(4-cyanophenyl)benzamide] | 60% | – |
| CC(O)c1ccc([C@@H](C)Oc2cccc(C(=O)Nc3ccc(C#N)cc3)c2)cc1 (stereo partly drawn) [Compound 216Am, N-(4-cyanophenyl)-3-((1R)-1-(4-(1-hydroxyethyl)phenyl)ethoxy)benzamide] | 21% | – |
| CC(=O)c1ccc([C@@H](C)Oc2cncc(C(=O)Nc3ccc(C#N)cc3)c2)cc1 [Compound 216An, (R)-5-(1-(4-acetylphenyl)ethoxy)-N-(4-cyanophenyl)nicotinamide] | 95% | – |
| CCC(CC)Oc1cccc(C(=O)Nc2ccc(C#N)cc2)c1 [Compound 216Ao, N-(4-cyanophenyl)-3-(pentan-3-yloxy)benzamide] | 37% | – |
| CC(=O)c1ccc(C(Oc2cccc(C(=O)Nc3ccc(C#N)cc3)c2)C(C)C)cc1 (stereo not drawn) [Compound 216Ap, 3-(1-(4-acetylphenyl)-2-methylpropoxy)-N-(4-cyanophenyl)benzamide] | 44% | – |
| CC(O)c1ccc([C@@H](C)Oc2cncc(C(=O)Nc3ccc(C#N)cc3)c2)cc1 (stereo partly drawn) [Compound 216Aq, N-(4-cyanophenyl)-5-((1R)-1-(4-(1-hydroxyethyl)phenyl)ethoxy)nicotinamide] | 0% | – |
| CC(=O)c1ccc(COc2cccc(C(=O)Nc3ccc(C#N)cc3)c2)cc1 [Compound 216Ar, 3-((4-acetylbenzyl)oxy)-N-(4-cyanophenyl)benzamide] | 27% | – |
| CC(=O)c1ccc(NC(=O)c2cccc(O[C@H](C)c3ccc(C(C)=O)cc3)c2)cc1 [Compound 216As, (R)—N-(4-acetylphenyl)-3-(1-(4-acetylphenyl)ethoxy)benzamide] | 97% | – |
